From patent US20210077492A1, “METHODS AND COMPOSITIONS OF TREATING PANCREATIC CANCER” (The Trustees of Indiana University, priority 2019, published 2021) come the findings set out here.

The structures appear in SMILES notation.

Test [1] deals with PDAC cell lines ASPC1, MiaPaCa-2, BXPC3. The test is described as follows: Cell proliferation of PDAC cell lines by automated IncuCyte incubator. The format is cell-based, human. The protocol:
A panel of pancreatic cancer cell lines (PCCs) was ordered from ATCC (https://www.atcc.org). Cells were cultured in RPMI media supplemented with 10% FBS and 1% penicillin streptomycin (100 units/ml of penicillin and […] of streptomycin) in a 37° C. incubator with 5% Carbon dioxide (CO2). All cell lines were confirmed to be mycoplasma-free using a Mycoalert detection kit (Lonza Allendale N.J., catalog #LT07-218) as per manufacturer's protocol. For DT1, DAC, and THU treatments, 1000 cells were plated in a 96 well plate overnight. Cells were treated three times at 24, 48, and 72 hours post-plating using concentrations of 0.2-2 μM of DT1 and DAC and 1-2 μM of THU independently or in combination. DMSO was used as a vehicle control. Cell proliferation was measured in a 37° C., Incucyte incubator (IncuCyte™ live-cell, Essen biosciences, Michigan USA) with 5% CO2 for automated live cell proliferation in real time, and images were taken every 6 hours for up to 160 hours. Cells were also counted on a Beckman coulter automated cell counter. Referring now to FIG. 27, primary PDAC cell line ASPC1 was incubated with 2 μM DT1 to inhibit UHRF1 and/or DNMT1 inhibitor DAC or CDA inhibitor THU (1 μM) or […], 0.2 μM DAC and THU (1 μM). Cell proliferation was quantified by automated IncuCyte incubator for 160 hours. […] Referring now to FIG. 28, primary PDAC cell line MiaPaCa-2 was incubated with 2 μM DT1 to inhibit UHRF1 and/or DNMT1 inhibitor DAC or CDA inhibitor THU (1 μM) or […], 0.2 μM DAC, and THU (1 μM). Cell proliferation was quantified by automated IncuCyte incubator for 160 hours. […] Referring now to FIG. 29, primary PDAC cell line BXPC3 was incubated with 2 μM DT1 to inhibit UHRF1 and/or DNMT1 inhibitor DAC or CDA inhibitor THU (1 μM) or […], 0.2 μM DAC, and THU (1 μM). Cell proliferation was quantified by automated IncuCyte incubator for 160 hours. […] Decitabine (DAC) is a clinically available drug that degrades DNMT1 to decrease DNA methylation while DT1 targets UHRF1.

Test [2] relates to pancreatic cancer cell line ASPC1. The test is described as follows: LINE1 global 5-methyl-cytosine DNA methylation assay in treated or transfected cells. The note with it: concentration not given. Format: cell-based, human. On the procedure:
DNA Methylation of normal pancreas and PDAC tumor samples was analyzed using data available through the MethHC database (http://methhc.mbc.nctu.edu.tw/php/index.php) using the PAAD dataset. Methylation analysis was performed at transcriptional start sites (TSS), promoters, and CpG island. For global DNA methylation changes, cells were transfected with shRNA against human UHRF1 (Dharmacon Horizon, catalog V3SH7590-225743149) for 96 hours or treated with THU (1 μM) DT1 (0.5-15 μM) or 5-aza-cytidine (1 μM). DNA was isolated using the Clonetech NucleoSpin DNA rapid lyse kit (catalog 740110.1) following manufacture's recommended conditions. 100 ng of isolated DNA was used to quantify DNA methylation using the 5mC-Long Interspersed Nucleotide Element 1 (LINE-1) kit from Active Motif (catalog number 55017) following the manufacture's recommendations. A Colorimetric ELISA readout was measured on a BioTek synhergy HI reader at 450 nm.
Referring now to FIG. 17, pancreatic cancer cell line ASPC1 was transfected with shRNA against UHRF1. DNA (100 ng) was isolated from shUFRF1 and scramble transfected cells at 96 hours post transfection and was used for quantification of global 5-methyl-cytosine methylation using LINE1 global DNA methylation kit (ACTIVE MOTIF).
Referring now to FIG. 23, primary PDAC cells were incubated with 2 μM of DT1 and 1 uM of THU for 96 hrs. […]

Test [3] relates to primary PDAC cell line ASPC1. Kind of test: Morphological analysis by giemsa staining for induction of differentiation. Format: cell-based, human. The note with it: DT1 at 0.5-2 μM. On the procedure: (§1) Referring now to FIG. 23, primary PDAC cells were incubated with 2 μM of DT1 and 1 uM of THU for 96 hrs. RNA was isolated and gene expression pancreas differentiation factors were analyzed in ASPC1 and BXPC3 cells. Referring now to FIG. 24, primary PDAC cell line ASPC1 was treated with 1 μM of THU, 2 μM of DT1, and 1 μM of DAC, or the combination of 0.5 μM of DT1 plus 0.2 μM of DAC, or 1 μM of THU and 0.5 μM of DT1 plus 0.2 μM of DAC. Morphological analysis was performed using a giemsa staining method to determine induction of differentiation (enlargement of cytoplasm and reduction of nuclear compartments). Black bar=200× magnification. Referring now to FIG. 25, primary PDAC cell line ASPC1 was treated with 100 nM of ATRA and 1 μM of DAC, or combination of 100 nM of ATRA plus 200 nM of DAC. Morphological analysis was performed using a giemsa staining method to determine induction of differentiation (enlargement of cytoplasm and reduction of nuclear compartments). Black bar=200× magnification. Referring now to FIG. 26, pancreatic cancer cell line ASPC1 was treated with DMSO as control, 1 μM of THU, and varying DT1 concentrations. DNA (100 ng) was isolated at 96 hours post transfection and was used to quantify global 5-methyla-cytosine (5-mC) methylation using LINE1 global DNA methylation kit (ACTIVE MOTIF). […]

Test [4] has as its system ASPC1 and BXPC3 cells. The test is described as follows: Gene expression of pancreas differentiation factors by qPCR. To be noted: DT1 at 0.5-2 μM. Format: cell-based, human. The protocol: Gene expression analysis by real time quantitative polymerase chain reaction (qRT-PCR) was performed using standard methods. Gene expression of target genes was performed using either SYBR green methods or Power Green ROX dye master mix (Applied Biosystems, Foster city CA, USA Lot number 1610538). Assays were performed with an Applied Biosytems ViiA7 (Life Technologies).
as §1, with “Morphological analysis was performed using a giemsa staining method to determine induction of differentiation (enlargement of cytoplasm and reduction of nuclear compartments). Black bar=200× magnification. Referring now to FIG. 26, pancreatic cancer cell line ASPC1 was treated with DMSO as control, 1 μM of THU, and varying DT1 concentrations.” left out

Test [5] deals with orthotopic xenografts of PDAC with AsPC-1 cells. The test is described as follows: Orthotopic PDAC xenograft model, tumor growth kinetics. Format: in vivo. The note with it: THU 10 mg/kg three times weekly, 35 days. On the procedure:
Orthotopic mouse models with human PDAC cells were generated using NOD/SCID mice. In vivo BLI was conducted on a NiteOwl system and acquisition software. Data were analyzed using eLumenate analysis software. For the primary tumor, signal intensity was quantified as the sum of all detected photon counts within a region of interest selected by an automated maximum entropy method and normalized to the area of that region of interest. For the metastatic region, a region of interest was drawn manually in a “crescent” shape which encompassed all of the abdominal region except the primary tumor and maintained a boundary at least 2 mm away from the ROI for the primary. The signal in the metastatic region was again quantified by dividing the sum of all detected photon counts in the region by the area of the region.
Referring to FIG. 30, bioluminescent and primary PDAC cell lines ASPC1 and MiPaCa-2 were used to generate PDAC xenografts for therapeutic validation. At 22 days post injection of tumor cells, tumor growth and metastatic dissemination are detected in this orthotopic models in NOD/SCID mice. Referring to FIG. 31, orthotopic xenografts of PDAC with AsPC-1 cells were treated with vehicle control, Tetrahydrouridine (THU, 10 mg/kg), Decitabine (DAC, 0.2 mg/kg), or combination of THU (10 mg/kg) with DAC (0.1 mg/kg) three times weekly. […]

For the molecule `C/C(=N\O)c1c[nH]c(=O)[nH]c1=O` [DT1], the “concentration range at which DT1 activity was observed” value in test [1] is on record as “micromolar range”. In test [1] (DT1 at 0.5-2 μM), the PDAC proliferation entry is “decreased PDAC proliferation”. The “global DNA methylation” value in test [2] is listed as “decreased global DNA methylation”. Also, the differentiation-based morphological changes entry in test [3] is listed as “induced differentiation-based morphological changes”. Besides, in test [4], the “expression of pancreas differentiation factors” value is on record as “upregulated pancreas differentiation factors”.

Turning to `O=C1NC(O)CCN1[C@@H]1O[C@H](CO)[C@@H](O)[C@H]1O` (stereo partly shown) [THU, tetrahydrouridine, reference compound], the tumor growth kinetics result in test [5] is listed as “did not affect tumor growth kinetics”. Also, in test [1] (alone or in combination, methods: 0.2-2 μM of DT1 and DAC, 1-2 μM of THU), the PDAC proliferation entry is “did not inhibit PDAC proliferation alone”.
